# Reference: PMC9241644, “Evaluation of Novel Quorum Sensing Inhibitors Targeting Auto-Inducer 2 (AI-2) for the Control of Avian Pathogenic Escherichia coli Infections in Chickens” (Microbiology Spectrum, 2022)
# Tested on: not listed separately
# Test: QSI-5 and SDM residue quantification in muscle, kidney and liver (LC-MS)
# Format: in vivo, chickens
# Conditions: broiler, chicken, in vivo, 35 DPLT
# Experimental: The safety of QSI-5 and SDM was assessed by measuring the level of drug residue in the muscle, kidney, and liver using LC-MS (CCIC, MS&P Facility, OSU) as described before ([34]). As described above, chickens were administered with the optimized dose of QSI-5 (1 mg/L) and the therapeutic dose of SDM (495.323 mg/L) (0.05%) in drinking water daily for 7 days (starting from day 5 to day 11 of age). Tissue samples were collected individually from chickens treated with QSI-5 and SDM (five chickens per group) from experimental set up as described for floor trial at 2 DPLT, 5 DPLT, and […] (slaughter age). All samples were weighed and extracted at a 400 mg/mL ratio of tissue in the extraction solution (50:50 H2O: ACN). Samples were homogenized using a probe sonicator 20 times and centrifuged at 13,000 × g for 30 min. Sixty μL of the supernatant was transferred into glass vials and dried in a SpeedVac for 1.5 h, and then resuspended in 120 μL of 25:25:50 H2O:ACN:MeOH. Standard calibration, LC system, mass spectrometer, and drug target monitoring were performed as described above. Calibration standard curves for measuring the accumulation of QSI-5 and SDM in the kidney, liver, and muscle are shown in Fig. S6A and S6B.
SMILES,"Drug accumulation, Liver (ppm± SD)","Drug accumulation, Muscle (ppm± SD)"
"COc1cc(NS(=O)(=O)c2ccc(N)cc2)nc(OC)n1 [SDM, sulfadimethoxine]",0.0 ± 0.0 ppm,0.0 ± 0.0 ppm

# Same assay, conditions: commercial broiler, chicken, in vivo, 35 DPLT
row,SMILES,"Drug accumulation, Kidney (ppm± SD)"
1,"COc1cc(NS(=O)(=O)c2ccc(N)cc2)nc(OC)n1 [SDM, sulfadimethoxine]",0.0 ± 0.0 ppm

# Same assay, conditions: in vivo
row,SMILES,residue in any tissues
1,"COc1cc(NS(=O)(=O)c2ccc(N)cc2)nc(OC)n1 [SDM, sulfadimethoxine]",no detectable residues

# Tested on: Rif^R APEC O78
# Test: Efficacy of QSIs in APEC-infected chickens (oral gavage pilot)
# Format: in vivo, Escherichia coli
# Conditions: Table S1; lesion score; oral gavage pilot; PC 1.25
# Experimental: The chicken experiment was carried out using 1-day-old broiler chickens (Mayer Hatchery, OH, USA). Feed and water were given ad libitum. Chickens (n = 6/group) were administered with the QSIs (QSI-1, QSI-2, QSI-5 − 8, QSI-10, ChemBridge, San Diego, CA); previously designated as C1, C2, C5, C6, C7, C8, C10 ([17]) using oral gavage. These compounds were selected based on their high efficacy in in vitro studies and the doses correspond to 30X of the initial in vitro screening concentration ([17]). The QSIs were suspended in dimethyl sulfoxide (DMSO; used as a vehicle) and administered once daily for 5 successive days (starting from day 4 to day 8). The first dose was administered 1 day before the challenge, followed by the second dose on the challenge day (2 h before challenge), followed by three additional doses on subsequent days. Feeders were removed 1 h prior to the treatment and replaced 1 h after the treatment. Chickens were challenged subcutaneously (s/c) on day 5 with Rif^R APEC O78 (1 × 10^7 CFU/bird) in PBS using syringe (27 gauge, 0.5 in.). The challenge dose, which […], was chosen based on preliminary experiments conducted with different infection routes (subcutaneous s/c, intra-tracheal and intra-airsacs) and different doses (10^6, 10^7, and 10^8 CFU/chicken). […] Therefore, we selected this challenge dose and route for evaluation of QSIs in chickens ([34]). The positive (PC; infected with APEC O78 and DMSO treated) and negative (NC; non-infected and non-treated) control groups were included.
# (§1) Chickens were monitored for clinical signs for 8 DPI. Any chickens moribund during this period were humanely euthanized and necropsied to determine bacterial load in the internal organs (liver, heart, lung, and kidney). Internal organs were aseptically collected, weighed and suspended in 1× PBS, the amount of PBS added was adjusted based on the organ size to make a suspension, the organ size and amount of PBS added were included in the final calculation of the CFU. The samples were homogenized, serially diluted 10-fold, plated on MacConkey agar (Remel, CA, USA) containing 50 μg/mL rifampicin, and incubated at 37°C for 24 h to determine the CFU/g. Pathological lesions severity in internal organs (pericarditis, perihepatitis, airsacculitis, and lung congestion) was scored as described previously ([21], [59]). At 8 DPI, the remaining chickens were humanely euthanized and necropsied, lesions were scored, and the APEC load was quantified in internal organs as described above.
row,SMILES,"Average lesion severity, Lung"
1,O=C(CCN1CCN(c2ccccc2F)CC1)Nc1ccc(Br)cc1 [QSI-7],0.17
2,O=[N+]([O-])c1cccc(S(=O)(=O)Nc2ccc(Br)cc2)c1 [QSI-6],0.50

# Same assay, conditions: Table S1; lesion score; oral gavage pilot; PC 1.75
row,SMILES,"Average lesion severity, Liver"
1,O=C(CCN1CCN(c2ccccc2F)CC1)Nc1ccc(Br)cc1 [QSI-7],1.33
2,O=[N+]([O-])c1cccc(S(=O)(=O)Nc2ccc(Br)cc2)c1 [QSI-6],0.83

# Same assay, conditions: Table S1; lesion score; oral gavage pilot; PC 2.00
row,SMILES,"Average lesion severity, Airsac"
1,O=C(CCN1CCN(c2ccccc2F)CC1)Nc1ccc(Br)cc1 [QSI-7],1.00
2,O=[N+]([O-])c1cccc(S(=O)(=O)Nc2ccc(Br)cc2)c1 [QSI-6],1.17

# Same assay, conditions: Table S1; lesion score; oral gavage pilot; PC 2.25
row,SMILES,"Average lesion severity, Heart"
1,O=C(CCN1CCN(c2ccccc2F)CC1)Nc1ccc(Br)cc1 [QSI-7],1.33
2,O=[N+]([O-])c1cccc(S(=O)(=O)Nc2ccc(Br)cc2)c1 [QSI-6],1.50

# Same assay, conditions: Table S1; oral gavage pilot, n = 6/group, 8 DPI; PC 66.6 (4/6)
row,SMILES,Mortality rate % (Nr.)
1,O=C(CCN1CCN(c2ccccc2F)CC1)Nc1ccc(Br)cc1 [QSI-7],66.6%
2,O=[N+]([O-])c1cccc(S(=O)(=O)Nc2ccc(Br)cc2)c1 [QSI-6],66.6%

# Same assay, conditions: Table S1; oral gavage pilot; PC 5.95
row,SMILES,"Average APEC load, Liver"
1,O=C(CCN1CCN(c2ccccc2F)CC1)Nc1ccc(Br)cc1 [QSI-7],5.95 Log CFU/g of tissue
2,O=[N+]([O-])c1cccc(S(=O)(=O)Nc2ccc(Br)cc2)c1 [QSI-6],4.62 Log CFU/g of tissue

# Same assay, conditions: Table S1; oral gavage pilot; PC 5.98
row,SMILES,"Average APEC load, Heart"
1,O=C(CCN1CCN(c2ccccc2F)CC1)Nc1ccc(Br)cc1 [QSI-7],6.13 Log CFU/g of tissue
2,O=[N+]([O-])c1cccc(S(=O)(=O)Nc2ccc(Br)cc2)c1 [QSI-6],4.87 Log CFU/g of tissue

# Same assay, conditions: Table S1; oral gavage pilot; PC 6.81
row,SMILES,"Average APEC load, Kidney"
1,O=C(CCN1CCN(c2ccccc2F)CC1)Nc1ccc(Br)cc1 [QSI-7],6.13 Log CFU/g of tissue
2,O=[N+]([O-])c1cccc(S(=O)(=O)Nc2ccc(Br)cc2)c1 [QSI-6],5.35 Log CFU/g of tissue

# Same assay, conditions: Table S1; oral gavage pilot; PC 6.83
row,SMILES,"Average APEC load, Lung"
1,O=C(CCN1CCN(c2ccccc2F)CC1)Nc1ccc(Br)cc1 [QSI-7],6.10 Log CFU/g of tissue
2,O=[N+]([O-])c1cccc(S(=O)(=O)Nc2ccc(Br)cc2)c1 [QSI-6],5.17 Log CFU/g of tissue

# Same assay, conditions: chickens, QSI oral gavage once daily 5 days, s/c APEC O78 1 × 10^7 CFU/bird; PC mortality normalized to 100%
row,SMILES,reduction in mortality compared with the PC group
1,O=C(CCN1CCN(c2ccccc2F)CC1)Nc1ccc(Br)cc1 [QSI-7],did not reduce mortality
2,O=[N+]([O-])c1cccc(S(=O)(=O)Nc2ccc(Br)cc2)c1 [QSI-6],did not reduce mortality

# Same assay, conditions: chickens, QSI oral gavage once daily 5 days, s/c APEC O78 1 × 10^7 CFU/bird; range over organs
row,SMILES,"average APEC load reduction in the internal organs (liver, heart, lung, kidney) compared with PC"
1,O=C(CCN1CCN(c2ccccc2F)CC1)Nc1ccc(Br)cc1 [QSI-7],did not reduce the APEC load

# Tested on: Rif^R APEC O78
# Test: Comparative efficacy of QSI-5 and SDM in field simulated conditions (built-up floor litter)
# Format: in vivo, Escherichia coli
# Conditions: Table S3; PC 1.85
# Source text: as §1
# To compare the efficacy of QSI-5 with an antibiotic SDM currently used in the field, chickens (n = 70) were raised on built-up floor litter in a field-simulated conditions. One-day-old broiler chickens (Case Farms Ohio Hatchery, OH, USA) were used for conducting the experiment. The optimized dose of QSI-5 (1 mg/L) and the therapeutic dose of SDM (495.323 mg/L) (0.05%) were given in drinking water daily for 7 days (starting from day 5 to day 11 of age). The volume of drinking water needed daily was determined as described above. On day 6, the chickens were infected s/c with Rif^r APEC O78 (5 × 10^6 CFU/chicken, s/c). PC (0.05% DMSO treated and infected) and NC (non-infected and non-treated) control groups were included. The mortality was recorded daily until the end of the experiment (42 days of age: slaughter age). At 8 DPI, half of the chickens from each group were necropsied, lesions were scored, and the APEC load was quantified in the internal organs as described above. The other half of the chickens were raised until day 42 to determine the impact of treatment on the body weight gain and feed intake. To calculate the FCR, body weight was measured once every week and feed intake was recorded every day. On day 42, the remaining chickens were euthanized, body weight was measured and 10 chickens from each group were randomly selected and necropsied, lesions and APEC load were assessed in the internal organs.
row,SMILES,"Average lesion severity, Lung"
1,"COc1cc(NS(=O)(=O)c2ccc(N)cc2)nc(OC)n1 [SDM, sulfadimethoxine]",1.17

# Same assay, conditions: Table S3; PC 2.52
row,SMILES,"Average lesion severity, Liver"
1,"COc1cc(NS(=O)(=O)c2ccc(N)cc2)nc(OC)n1 [SDM, sulfadimethoxine]",2.03

# Same assay, conditions: Table S3; PC 3.36
row,SMILES,"Average lesion severity, Airsac"
1,"COc1cc(NS(=O)(=O)c2ccc(N)cc2)nc(OC)n1 [SDM, sulfadimethoxine]",2.50

# Same assay, conditions: Table S3; PC 3.58
row,SMILES,"Average lesion severity, Heart"
1,"COc1cc(NS(=O)(=O)c2ccc(N)cc2)nc(OC)n1 [SDM, sulfadimethoxine]",2.83

# Same assay, conditions: Table S3; PC 7.24
row,SMILES,"Average APEC load, Liver"
1,"COc1cc(NS(=O)(=O)c2ccc(N)cc2)nc(OC)n1 [SDM, sulfadimethoxine]",5.05 Log CFU/ g of tissue

# Same assay, conditions: Table S3; PC 7.68
row,SMILES,"Average APEC load, Lung"
1,"COc1cc(NS(=O)(=O)c2ccc(N)cc2)nc(OC)n1 [SDM, sulfadimethoxine]",6.17 Log CFU/ g of tissue

# Same assay, conditions: Table S3; PC 7.73
row,SMILES,"Average APEC load, Kidney"
1,"COc1cc(NS(=O)(=O)c2ccc(N)cc2)nc(OC)n1 [SDM, sulfadimethoxine]",5.33 Log CFU/ g of tissue

# Same assay, conditions: Table S3; PC 7.92
row,SMILES,"Average APEC load, Heart"
1,"COc1cc(NS(=O)(=O)c2ccc(N)cc2)nc(OC)n1 [SDM, sulfadimethoxine]",5.69 Log CFU/ g of tissue

# Same assay, conditions: Table S3; until 42 days of age; QSI-5 (8/63), SDM (19/65); PC 45.6 (31/68)
row,SMILES,Mortality rate % (Nr.)
1,"COc1cc(NS(=O)(=O)c2ccc(N)cc2)nc(OC)n1 [SDM, sulfadimethoxine]",29.2%

# Same assay, conditions: built-up floor litter; QSI-5 1 mg/L, SDM 495.3 mg/L (0.05%) in drinking water 7 days; s/c APEC O78 5 × 10^6 CFU/chicken
row,SMILES,reduction in mortality compared with the PC group
1,"COc1cc(NS(=O)(=O)c2ccc(N)cc2)nc(OC)n1 [SDM, sulfadimethoxine]",35.9%
